Source: patent US8822533B1, “Methods and compositions for repelling and/or killing insects” (The United States of America, as represented by the …, priority 2011, dated 2014)

How the values were obtained:
[1] = tested on: bed bugs (Cimex lectularius); assay: Bed bug mortality on treated filter paper; type: in vivo; details: 24 h
[2] = tested on: bed bugs (Cimex lectularius); assay: Bed bug mortality on treated filter paper; type: in vivo; details: for mortality at 1 µg/cm2 / mortality at 10 µg/cm2 / mortality at 100 µg/cm2: Cimex lectularius, 24 h
Experimental: Knockdown data and mortality for volatile pyrethroids against bed bugs (Cimex lectularius): Compounds were dissolved in acetone to yield concentrations of 100 μg/cm^2, 10 μg/cm^2, and 1 μg/cm^2 and 47 mm filter paper disks were treated. Acetone-treated filter paper was used as a negative control. Mixed stages (nymphs and adults) of a laboratory colony of the bed bug Cimex lectularius were placed on the treated filter paper in glass Petri dishes and mortality was recorded 24 h later, at which time bed bugs were removed to untreated surfaces. 24 h after this transfer another assessment of mortality was made to see if any dead or moribund bugs had recovered.

Ae. aegypti mosquitoes = assay: Sleeve bite protection assay on treated uniform fabric, mosquitoes; type: in vivo, Aedes aegypti (Orlando, 1952)
Experimental: (§1) Biological Evaluation: Bite protection assays were conducted with laboratory-reared 7-12 day old mosquitoes or sand flies. The species used throughout these studies are Aedes aegypti (Orlando, 1952) and Phlebotomus papatasi sand flies (Jerusalem, 1983). Females were pre-selected using either a hand draw box or a mechanical aspirator. An assay was conducted by wearing sewn sleeves made from clothing material. Treated specimens were assayed with untreated controls to correct for the bite resistance afforded by material construction and composition. The untreated control was tested at the beginning of the experiment, followed by successively higher candidate repellent concentrations on sleeves. Sleeves were sewn from a cut out single ply trapezoidal pattern (33.2 cm×21 cm×25.5 cm height) of material. […] Permethrin was 35:65cis: trans, 95.85% technical material. Experimental repellents were received as neat samples with <5% impurities. The treatment occurred by dissolution of repellent in suitable quantity of acetone to saturate the clothing, but minimizing excess solution. Excess solution was quantified and this amount of excess was then used to calculate the estimated amount of repellent applied to the material. […] The photoperiod was 12:12. The mosquito cages were approximately 60000 cm^3 and each contained 175 to 225 female mosquitoes. […] Cages for sand fly work were slightly smaller (15000 cm^3) and constructed of acrylic for filming purposes and with screens on the exterior edges to allow air flow through the system. About 20-40 sand flies were released in cages for each assay. Assays started when the sleeved arm was inserted through the sleeve into the cage. Normally the hand was protected by a glove, but there were situations (i.e. sand fly data presented here) when the ability of a repellent to protect the untreated hand was determined. The assay periods were 15 min for the mosquitoes and 25-30 minutes for sand flies. The insects were allowed to land, probe and possibly bloodfeed during this time. At the conclusion of the experiment, all insects were knocked down or aspirated and the percentage that bloodfed of the total female test population in the cage was recorded. The protect level was calculated by Abbott's formula as a percentage reduction in bites compared to the untreated fabric control sleeve. Specific conditions for bioassays are noted with corresponding data contained in the Tables.

[3] = tested on: Mosquitoes, either Aedes aegypti (Liverpool) or Anopheles stephensi Liston; assay: K&D module in vitro bioassay: biting protection, knockdown and mortality; type: in vivo; details: for mortality at 0.0025 µM / mortality at 0.025 µM: Aedes aegypti; for mortality at 0.0025 µM: 24 h; for mortality at 0.025 µM: 48 h
Experimental: In vitro bioassays were conducted as described by Klun et. al. (Klun, J. A., et al., J. Med. Entomol., 40: 293-299 (2005)). Each test replicate consisted of 3 treatments: a control (EtOH); a standard (Deet, 4.54 nmol/μl); and an experimental compound (pyrethroid analogs, 4.54 nmol/ul). The 3 treatments were randomly assigned to consecutive cells in 2, 6-cell reservoirs connected in series to a single water-bath pump; thus, 4 replicates could be tested/run. Tests were performed in an Air Science USA hood, with an air movement velocity of approx. 110-120 ft./min., temperature of 25-27° C., and RH of 15-25%. A 6-celled reservoir was connected to and heated by a constant-temperature (38° C.) water circulator (Lauda E100, Wobser GMGH and Co., Konigshofell, Germany).
Prior to each test, the upper surface of each reservoir was coated with a thin layer of high-vacuum silicone grease (Dow Corning Corp., Midland, Mich.), and the cells then filled (approx. 6 ml. capacity) or topped-off with either: (1) expired human red blood cells suspended in citrate-phosphate-dextrose-adenine (CPDA) solution, not more than 1 month past expiration date, and to which 110 mg ATP/35 ml. blood-CPDA had been added on the day of testing; or (2) CPDA+ATP×^−3, usually made up or diluted to 10^−3 ATP on the day of testing. The filled cells were then covered with an Edicol collagen membrane (Devro, Sandy Run, S.C.) strip, and then with a just-treated (110 μl of 4.54 nmol/μl treatment or control solution) organdy cloth (G Street Fabrics, Rockville, Md.) strip. Mosquitoes used in tests were either Aedes aegypti_(Liverpool) or Anopheles stephensi_Liston. K&D modules containing 5 adult females/cell were placed over a Teflon separator atop each reservoir; the sliding floors opened allowing access to the treated organdy cloth and membrane-covered cell; and the number of mosquitoes biting (proboscis inserted through the cloth) and/or observed to be engorged within each cell at the end of a 3-5 min. exposure period was recorded. Mosquitoes were used only once in a test, and then frozen and discarded.
Only tests in which 3 or more females fed in the control cell were analyzed, as lower feeding rates are indicative of substandard feeding readiness of that group of mosquitoes.
[…] Data were collected to record knockdown in 6 minutes, one hour and 24 hours post exposure.

[4] = tested on: Phlebotomus papatasi sand flies; assay: Sleeve bite protection assay on treated uniform fabric, sand flies; type: in vivo, Phlebotomus papatasi (Jerusalem, 1983); details: FRACU, permethrin sleeve 0.134 mg/cm^2 + treated strip, hand ungloved; strip TL-I-73 0.167, transfluthrin 0.161 mg/cm2
Experimental: as §1

[5] = ACU (50/50 NYCO) sleeve, glove on hand, 15 min, permethrin 0.118, transfluthrin 0.108, TL-I-107 0.107, TL-I-141 0.109, TL-I-105 0.107, TL-I-73 0.102 mg/cm^2
[6] = ACU (50/50 NYCO) sleeve, glove on hand, Abbott's formula vs untreated sleeve, concentrations as E1
[7] = ACU (50/50 NYCO) sleeve, glove on hand, concentrations as E1
[8] = ACU sleeve, stored one year then tested, concentrations as E1
[9] = ACU sleeve, treated specimens stored in refrigerator for one year then tested, concentrations as E1
[10] = ACU sleeve, No Glove on hand, permethrin 0.118, transfluthrin 0.108 mg/cm^2
[11] = FRACU sleeve, concentrations as E9
[12] = FRACU, untreated sleeve + treated strip, Ultrathon (34.34% DEET) on hand, TL-I-73 0.163, transfluthrin 0.158 mg/cm^2
[13] = FRACU, untreated sleeve + treated strip, hand gloved, TL-I-73 0.163, transfluthrin 0.158 mg/cm^2

| Compound | mortality at 5 µg/cm2 [1] | mortality at 1 µg/cm2 [2] | mortality at 10 µg/cm2 [2] | mortality at 100 µg/cm2 [2] | Blood-fed # (Ae. aegypti mosquitoes; [5]) | Bite Protection (%) (Ae. aegypti mosquitoes; [6]) | Fed (%) (Ae. aegypti mosquitoes; [7]) | Bite Protection (%) (Ae. aegypti mosquitoes; [8]) | Fed (%) (Ae. aegypti mosquitoes; [8]) | Blood-fed # (Ae. aegypti mosquitoes; [9]) | Knockdown 6 min (%) ([3]; 2.5 nM\cm^2, K&D module) | Knockdown 24 hours (%) ([3]; 2.5 nM\cm^2, K&D module) | Not feeding 3 minutes (%) ([3]; 2.5 nM\cm^2, K&D module) | Knockdown 1 hour (%) ([3]; 2.5 nmol/cm^2, K&D module) | Knockdown 6 min (%) ([3]; 25 nM\cm^2, K&D module) | Knockdown 24 hours (%) ([3]; 25 nM\cm^2, K&D module) | Not feeding 3 minutes (%) ([3]; 25 nM\cm^2, K&D module) | Knockdown 1 hour (%) ([3]; 25 nmol/cm^2, K&D module) | mortality at 0.0025 µM [3] | mortality at 0.025 µM [3] | other results |
| --- | --- | --- | --- | --- | --- | --- | --- | --- | --- | --- | --- | --- | --- | --- | --- | --- | --- | --- | --- | --- | --- |
| CC(C)=C[C@@H]1[C@@H](C(=O)OCc2c(F)c(F)c(C)c(F)c2F)C1(C)C [TL-I-105] | 100% | 10% | 100% | 100% | 0 # | 100% | 0.0% | 100% | 0.0% | 0 # | 98% | 100% | 100% | 100% | 100% | 100% | 100% | 100% | 100% | 100% | – |
| CC1(C)[C@H](C=C(Cl)Cl)[C@H]1C(=O)OCc1c(F)c(F)cc(F)c1F [Transfluthrin, transfluthrin] | – | – | – | – | 0 # | 100% | 0.0% | 100% | 0.0% | 0 # | 100% | 100% | 100% | 100% | 100% | 100% | 100% | 100% | 100% | 100% | mortality (in words) ([2]; at either 100 μg/cm^2 or 10 μg/cm^2): no mortality or mortality less than 100%; mortality (value in parentheses) ([2]; concentration not clearly stated for this group): 20%; Blood-fed # (Ae. aegypti mosquitoes; [10]): 4 #; Fed (%) (Ae. aegypti mosquitoes; [10]): 2.1%; protecting non-repellent treated surfaces of skin (i.e. the hand) (Ae. aegypti mosquitoes; ACU sleeve, glove removed from hand, compared with permethrin): superior to permethrin; bite protection (Ae. aegypti mosquitoes; Defender-M FRACU sleeve at 0.52 mg/cm2): 100%; Blood-fed # (Ae. aegypti mosquitoes; FRACU (65% Rayon, 10% Nylon, 25% Para-aramid) sleeve, permethrin 0.071, combination permethrin 0.031 + transfluthrin 0.038, transfluthrin 0.052 mg/cm^2): 0 #; Bite Protection (%) (Ae. aegypti mosquitoes; [11]): 100.0%; Fed (%) (Ae. aegypti mosquitoes; [11]): 0.0%; Bite Protection (%) (Ae. aegypti mosquitoes; FRACU sleeve, concentrations as E9, listed as transfluthrin): 100%; Bite Protection (%) (Ae. aegypti mosquitoes; FRACU, permethrin sleeve 0.134 mg/cm^2 + treated strip, hand gloved, strip TL-I-73 0.167, transfluthrin 0.161 mg/cm^2): 100%; Blood-fed # (Ae. aegypti mosquitoes; FRACU, untreated sleeve + treated strip (20.5 cm × 2.6 cm) at wrist, hand gloved, TL-I-73 0.163, transfluthrin 0.158 mg/cm^2): 11 #; Blood-fed # (Ae. aegypti mosquitoes; FRACU, untreated sleeve + treated strip, Ultrathon 12 hr repellent (34.34% DEET) on hand, TL-I-73 0.163, transfluthrin 0.158 mg/cm^2): 6 #; Bite Protection (%) (Ae. aegypti mosquitoes; [12]): 89.2%; Fed (%) (Ae. aegypti mosquitoes; [12]): 2.9%; Bite Protection (%) (Ae. aegypti mosquitoes; [13]): 93.3%; Fed (%) (Ae. aegypti mosquitoes; [13]): 5.5%; Bite Protection (%) [4]: significant protection from sand fly bites to the unprotected hand |
| Cc1c(Cl)c(Cl)c(COC(=O)[C@@H]2[C@@H](C=C(Cl)Cl)C2(C)C)c(Cl)c1Cl [TL-I-111] | 100% | 0% | 100% | 100% | – | – | – | – | – | – | – | – | – | – | – | – | – | – | – | – | – |
